Reference: patent US10336762B2 (priority 2017, dated 2019)
Like-named read-outs stand apart in the source and are kept apart here. One block for each compound: values may come before it.

Assays:
TNFα = test: cells; type: cell-based, human; details: LPS-stimulated human monocytes, read-out: EC50 TNF
IRAK4 enzyme = IRAK4 enzyme (Homo sapiens (Human), UniProt Q9NWZ3); test: biochemical; type: biochemical; details: IRAK4 enzyme, 500 μM ATP
[1] = Homo sapiens, Monocyte, TNFα content
[2] = Homo sapiens, Monocyte, TNFα by TR-FRET

Chain of IRAK4 enzyme (Q9NWZ3 whole entry): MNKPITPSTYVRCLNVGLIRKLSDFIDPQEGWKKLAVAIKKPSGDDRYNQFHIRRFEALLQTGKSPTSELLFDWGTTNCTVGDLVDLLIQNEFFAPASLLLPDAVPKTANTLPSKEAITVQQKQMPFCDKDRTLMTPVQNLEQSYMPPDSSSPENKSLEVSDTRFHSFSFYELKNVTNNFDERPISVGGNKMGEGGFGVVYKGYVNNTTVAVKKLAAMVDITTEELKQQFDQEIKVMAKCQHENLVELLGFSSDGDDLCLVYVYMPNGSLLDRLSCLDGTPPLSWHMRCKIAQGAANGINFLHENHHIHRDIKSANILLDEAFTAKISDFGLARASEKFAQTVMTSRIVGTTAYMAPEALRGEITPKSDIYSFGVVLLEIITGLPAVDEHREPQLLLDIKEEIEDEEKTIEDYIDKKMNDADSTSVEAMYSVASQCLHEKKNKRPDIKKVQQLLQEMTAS

Compound: CC(C)(O)[C@H](F)CNC(=O)c1cnc(-c2ccc3cc(C#N)cnn23)cc1N[C@H]1CC[C@](C)(N)CC1 [Example 535, (R)-4-((4-amino-4-methylcyclohexyl)amino)-6-(3-cyanopyrrolo[1,2-b]pyridazin-7-yl)-N-(2-fluoro-3-hydroxy-3-methylbutyl)nicotinamide]
EC50 (TNFα; [1]): 999 nM | IC50 (IRAK4 enzyme; TR-FRET (HTRF)): 2 nM

Compound: N#Cc1cnn2c(-c3cc(NC45CCC(O)(CC4)CC5)c(C(=O)N[C@H]4CCNC4=O)cn3)ccc2c1 [Example 960, (S)-6-(3-cyanopyrrolo[1,2-b]pyridazin-7-yl)-4-((4-hydroxybicyclo[2.2.2]octan-1-yl)amino)-N-(2-oxo-pyrrolidin-3-yl)nicotinamide]
EC50 (TNFα; [2]): 316 nM | IC50 (IRAK4 enzyme; TR-FRET): 1 nM

Compound: N#Cc1cnn2c(-c3cc(NC45CCC(O)(CC4)CC5)c(C(=O)NC45CCC(O)(CC4)CC5)cn3)ccc2c1 [Example 402, 6-(3-cyanopyrrolo[1,2-b]pyridazin-7-yl)-N-(4-hydroxybicyclo[2.2.2]octan-1-yl)-4-((4-hydroxy-bicyclo[2.2.2]octan-1-yl)amino)nicotinamide]
EC50 (TNFα; [1]): 77 nM | IC50 (IRAK4 enzyme; TR-FRET (HTRF)): 2 nM

Compound: Cc1cc(Nc2cc(-c3ccc4cc(C#N)cnn34)ncc2C(=O)NC[C@@H](F)C(C)(C)O)ccc1C#N [Example 583, (R)-4-((4-cyano-3-methylphenyl)amino)-6-(3-cyanopyrrolo[1,2-b]pyridazin-7-yl)-N-(2-fluoro-3-hydroxy-3-methylbutyl)nicotinamide]
EC50 (TNFα; [1]): 140 nM | IC50 (IRAK4 enzyme; TR-FRET (HTRF)): 2 nM

Compound: CC(C)(O)[C@H](F)CNC(=O)c1cnc(-c2ccc3cc(C#N)cnn23)cc1Nc1ccc(-n2cccn2)nc1 [Example 770, (R)-4-((6-(1H-pyrazol-1-yl)pyridin-3-yl)amino)-6-(3-cyanopyrrolo[1,2-b]pyridazin-7-yl)-N-(2-fluoro-3-hydroxy-3-methyl-butyl)nicotinamide]
EC50 (TNFα; [1]): 50 nM | IC50 (IRAK4 enzyme; TR-FRET (HTRF)): < 1 nM

Compound: CC1(O)CN(C(=O)CNC(=O)c2cnc(-c3ccc4cc(C#N)cnn34)cc2NC23CCC(O)(CC2)CC3)C1 [Example 954, 6-(3-cyanopyrrolo[1,2-b]pyridazin-7-yl)-N-(2-(3-hydroxy-3-methylazetidin-1-yl)-2-oxoethyl)-4-((4-hydroxybicyclo[2.2.2]octan-1-yl)amino) nicotinamide]
EC50 (TNFα; [2]): 213 nM | IC50 (IRAK4 enzyme; TR-FRET): < 1 nM

Compound: CNC(=O)c1ccc(Nc2cc(-c3ccc4cc(C#N)cnn34)ncc2C(=O)NC[C@@H](F)C(C)(C)O)cn1 [Example 579, (R)-5-((2-(3-cyano-pyrrolo[1,2-b]pyridazin-7-yl)-5-((2-fluoro-3-hydroxy-3-methylbutyl)carbamoyl)pyridin-4-yl)amino)-N-methylpicolinamide]
EC50 (TNFα; [1]): 75 nM | IC50 (IRAK4 enzyme; TR-FRET (HTRF)): < 1 nM

Compound: CC(C)Nc1cc(-c2ccc3cc(C#N)cnn23)ncc1C(=O)NCCC(O)C(F)(F)F (stereo not drawn) [Example 712, 6-(3-cyanopyrrolo[1,2-b]pyridazin-7-yl)-4-(isopropyl-amino)-N-(4,4,4-trifluoro-3-hydroxybutyl)nicotinamide]
EC50 (TNFα; [1]): 47 nM | IC50 (IRAK4 enzyme; TR-FRET (HTRF)): < 1 nM

Compound: CC(C)Nc1cc(-c2ccc3cc(C#N)cnn23)ncc1C(=O)N[C@H]1CC[C@H](C(C)(C)O)CC1 [Example 3, 6-(3-cyanopyrrolo[1,2-b]pyridazin-7-yl)-N-((1r,4r)-4-(2-hydroxypropan-2-yl)cyclohexyl)-4-(isopropylamino)nicotinamide]
EC50 (TNFα; [1]): 62 nM | IC50 (IRAK4 enzyme; TR-FRET): < 1 nM

Compound: CC(C)(O)[C@H](F)CNC(=O)c1cnc(-c2ccc3cc(C#N)cnn23)cc1N[C@H]1C[C@H](CNc2nnc(C3CC3)o2)C1 [Example 696, 6-(3-cyanopyrrolo[1,2-b]pyridazin-7-yl)-4-(((1r,3R)-3-(((5-cyclopropyl-1,3,4-oxadiazol-2-yl)amino)methyl)cyclobutyl)amino)-N-((R)-2-fluoro-3-hydroxy-3-methylbutyl)nicotinamide]
EC50 (TNFα; [1]): 103 nM | IC50 (IRAK4 enzyme; TR-FRET (HTRF)): < 1 nM

Compound: CC(C)(O)[C@H](F)CNC(=O)c1cnc(-c2ccc3cc(C#N)cnn23)cc1NCC1CNC1 [Example 905, (R)-4-((azetidin-3-yl-methyl)amino)-6-(3-cyanopyrrolo[1,2-b]pyridazin-7-yl)-N-(2-fluoro-3-hydroxy-3-methylbutyl)nicotinamide]
EC50 (TNFα; [2]): > 10000 nM | IC50 (IRAK4 enzyme; TR-FRET): 15 nM

Compound: CC(C)(O)[C@H](F)CNC(=O)c1cnc(-c2ccc3cc(C#N)cnn23)cc1Nc1ccc(C(C)(C)N2CCCC2=O)cc1 [Example 875, (R)-6-(3-cyanopyrrolo[1,2-b]pyridazin-7-yl)-N-(2-fluoro-3-hydroxy-3-methyl-butyl)-4-((4-(2-(2-oxo-pyrrolidin-1-yl)propan-2-yl)phenyl)amino)nicotinamide]
EC50 (TNFα; [2]): 64 nM | IC50 (IRAK4 enzyme; TR-FRET): 2 nM

Compound: CC(C)(O)[C@H](F)CNC(=O)c1cnc(-c2ccc3cc(C#N)cnn23)cc1NCCS(C)(=O)=O [Example 102, (R)-6-(3-cyanopyrrolo[1,2-b]pyridazin-7-yl)-N-(2-fluoro-3-hydroxy-3-methylbutyl)-4-((2-(methylsulfonyl)ethyl)amino) nicotinamide]
EC50 (TNFα; [1]): 313 nM

Compound: Cn1cc(Nc2cc(-c3ccc4cc(C#N)cnn34)ncc2C(=O)NC[C@@H](F)C(C)(C)O)ccc1=O [Example 441, (R)-6-(3-cyanopyrrolo[1,2-b]pyridazin-7-yl)-N-(2-fluoro-3-hydroxy-3-methylbutyl)-4-((1-methyl-6-oxo-1,6-dihydropyridin-3-yl)amino)nicotinamide]
EC50 (TNFα; [1]): 1300 nM

Compound: CC(C)Nc1cc(-c2ccc3cc(C#N)cnn23)ncc1C(=O)NC1(C)COC1 [Example 35, 6-(3-cyanopyrrolo[1,2-b]pyridazin-7-yl)-4-(isopropyl-amino)-N-(3-methyloxetan-3-yl) nicotinamide]
IC50 (IRAK4 enzyme; TR-FRET): 3 nM

Compound: CNc1cc(-c2ccc3cc(C#N)cnn23)ncc1C(=O)NC[C@@H](F)C(C)(C)O [Example 379, (R)-6-(3-cyanopyrrolo[1,2-b]pyridazin-7-yl)-N-(2-fluoro-3-hydroxy-3-methylbutyl)-4-(methyl-amino)nicotinamide]
EC50 (TNFα; [1]): 57 nM

Compound: CC(C)(O)[C@H](F)CNC(=O)c1cnc(-c2ccc3cc(C#N)cnn23)cc1NC1(CO)CC1 [Example 51, (R)-6-(3-cyanopyrrolo[1,2-b]pyridazin-7-yl)-N-(2-fluoro-3-hydroxy-3-methylbutyl)-4-((1-(hydroxymethyl)cyclopropyl)amino)nicotinamide]
EC50 (TNFα; [1]): 159 nM

Compound: CC(=O)NCC(F)(F)CNC(=O)c1cnc(-c2ccc3cc(C#N)cnn23)cc1NC(C)C [Example 551, N-(3-acetamido-2,2-difluoropropyl)-6-(3-cyanopyrrolo[1,2-b]pyridazin-7-yl)-4-(isopropylamino)nicotinamide]
EC50 (TNFα; [1]): 809 nM

Compound: CC(C)(O)[C@H](F)CNC(=O)c1cnc(-c2ccc3cc(C#N)cnn23)cc1Nc1nc2ccccc2s1 [Example 377]
EC50 (TNFα; [1]): 426 nM

Compound: CC(C)Nc1cc(-c2ccc3cc(C#N)cnn23)ncc1C(=O)NCCC1COC1 [Example 52, 6-(3-cyanopyrrolo[1,2-b]pyridazin-7-yl)-4-(isopropylamino)-N-(2-(oxetan-3-yl)ethyl) nicotinamide]
EC50 (TNFα; [1]): 86 nM

Compound: CC(C)(O)[C@H](F)CNC(=O)c1cnc(-c2ccc3cc(C#N)cnn23)cc1Nc1cccc(OC(F)(F)F)c1 [Example 607, (R)-6-(3-cyanopyrrolo[1,2-b]pyridazin-7-yl)-N-(2-fluoro-3-hydroxy-3-methylbu1yl)-4-((3-(trifluoromethoxy)phenyl)amino)nicotinamide]
EC50 (TNFα; [1]): 1440 nM

Compound: CC(C)(O)[C@H](F)CNC(=O)c1cnc(-c2ccc3cc(C#N)cnn23)cc1Nc1cnc(-c2cn[nH]c2)nc1 [Example 969, (R)-4-((2-(1H-pyrazol-4-yl)pyrimidin-5-yl)amino)-6-(3-cyanopyrrolo[1,2-b]pyridazin-7-yl)-N-(2-fluoro-3-hydroxy-3-methyl-butyl)nicotinamide]
IC50 (IRAK4 enzyme; TR-FRET): < 1 nM

Compound: CC(C)(O)[C@H](F)CNC(=O)c1cnc(-c2ccc3cc(C#N)cnn23)cc1NC1CC1 [Example 55, (R)-6-(3-cyanopyrrolo[1,2-b]pyridazin-7-yl)-4-(cyclopropylamino)-N-(2-fluoro-3-hydroxy-3-methylbutyl) nicotinamide]
EC50 (TNFα; [1]): 28 nM

Compound: CNC(=O)OC[C@@H]1C[C@H]1Nc1cc(-c2ccc3cc(C#N)cnn23)ncc1C(=O)NC[C@@H](F)C(C)(C)O [Example 747]
EC50 (TNFα; [1]): 169 nM

Compound: 6-(3-cyanopyrrolo[1,2-b]pyridazin-7-yl)-N-(2-(hydroxymethyl)cyclopropyl)-4-(isopropylamino)nicotinamide [Example 19]
EC50 (TNFα; TNFα content): 926 nM

Compound: N#Cc1cnn2c(-c3cc(N[C@H]4CCC[C@@H](O)C4)c(C(=O)NC4CCC(F)(F)CC4)cn3)ccc2c1 [Example 431, 6-(3-cyanopyrrolo[1,2-b]pyridazin-7-yl)-N-(4,4-difluorocyclohexyl)-4-(((1S,3R)-3-hydroxy-cyclohexyl)amino) nicotinamide]
EC50 (TNFα; [1]): 441 nM

EC50 (TNFα; TNFα content): > 10000 nM
Compound: (R)-4-((1H-benzo[d][1,2,3] triazol-5-yl)amino)-6-(3- cyanopyrrolo[1,2-b]pyridazin- 7-yl)-N-(2-fluoro-3- hydroxy-3-methylbutyl) nicotinamide [Example 569]

Compound: CC(C)(O)[C@H](F)CNC(=O)c1cnc(-c2ccc3cc(C#N)cnn23)cc1Nc1cncc(OCC(F)F)c1 [Example 852, (R)-6-(3-cyanopyrrolo[1,2-b]pyridazin-7-yl)-4-((5-(2,2-difluoroethoxy)pyridin-3-yl)amino)-N-(2-fluoro-3-hydroxy-3-methylbutyl) nicotinamide]
EC50 (TNFα; [2]): 3 nM

Compound: CC(C)(O)[C@H](F)CNC(=O)c1cnc(-c2ccc3cc(C#N)cnn23)cc1Nc1ccc(-n2nccn2)cc1 [Example 774, (R)-4-((4-(2H-1,2,3-triazol-2-yl)phenyl)amino)-6-(3-cyanopyrrolo[1,2-b]pyridazin-7-yl)-N-(2-fluoro-3-hydroxy-3-methylbutyl)nicotinamide]
IC50 (IRAK4 enzyme; TR-FRET (HTRF)): 2 nM

Compound: 6-(3-cyanopyrrolo[1,2- b]pyridazin-7-yl)-N-((R)- 2-fluoro-3-hydroxy-3- methylbutyl)-4-(((1s,3S)-3- hydroxyadamantan-1- yl)amino)nicotinamide [Example 525]
EC50 (TNFα; TNFα content): 11 nM
